# Data taken from US5229381A, “Substituted azetidinones as anti-inflammatory and antidegenerative agents” (Merck & Co., Inc., priority 1991, dated 1993).
# Target: T1, human polymorphonuclear leukocyte elastase (Homo sapiens, UniProt P08246)
# T1 construct: Crude extract of human polymorphonuclear leukocytes (PMN) containing elastase activity; endogenous in cells; host or cells: human polymorphonuclear leukocytes (crude extract)
# T1 sequence (P08246 30-247 limits assumed): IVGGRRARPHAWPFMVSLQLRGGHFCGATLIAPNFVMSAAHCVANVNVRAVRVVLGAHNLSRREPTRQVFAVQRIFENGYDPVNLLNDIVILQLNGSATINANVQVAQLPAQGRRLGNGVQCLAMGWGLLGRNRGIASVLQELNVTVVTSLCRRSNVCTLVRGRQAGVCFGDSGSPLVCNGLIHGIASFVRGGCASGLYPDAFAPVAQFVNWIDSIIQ
# Assay: Inhibition of human polymorphonuclear leukocyte (granulocyte) elastase via hydrolysis of Boc-AAPAN or Boc-AAPVN
# Type: biochemical
# Details: pH 7.5, Table III, (per mole per second); read-out: kobs/I, second order rate constant of inactivation of the enzyme
row,Compound,kinact/KI [M⁻¹ s⁻¹]
1,CCC1(CC)C(=O)N(C(=O)NCc2ccccc2)C1n1cnnn1 (stereo not shown) [Table III: 1-tetrazolyl; CH2 Ph],948
2,CCC1(CC)C(=O)N(C(=O)NCc2ccc(-c3ccccc3)cc2)C1OCC(=O)O (stereo not shown) [Table III: OCH2 COOH; CH2 Ph-4-Ph],2900
3,CCC1(CC)C(=O)N(C(=O)NCc2ccc(-c3cccc(C(=O)O)c3)cc2)C1Oc1ccc(C(=O)O)cc1 (stereo not shown),14700
4,CCC1(CC)C(=O)N(C(=O)NCc2ccc(C)c(C)c2)C1Oc1ccc(C(=O)O)cc1 (stereo not shown),20600
5,CCC1(CC)C(=O)N(C(=O)NCc2ccccc2)C1OCC(O)CO (stereo not shown) [Table III: O-glyceryl; CH2 Ph],818
6,CCC(NC(=O)N1C(=O)C(CC)(CC)C1OCC(N)=O)c1ccccc1 (stereo not shown) [Table III: OCH2CONH2; CH(Et)Ph],103000
7,CCC1(CC)C(=O)N(C(=O)NCc2ccccc2)C1Sc1nc[nH]n1 (stereo not shown),116
8,CCC1(CC)C(=O)N(C(=O)NCc2ccc(C(C)=O)cc2)C1Oc1ccc(C(=O)O)cc1 (stereo not shown) [Table III: O-(4-COOHPh); CH2 Ph(4-COMe)],5920

# Results, then the compound that gave them:
row,kinact/KI [M⁻¹ s⁻¹],Compound
1,1460,CCC1(CC)C(=O)N(C(=O)NCc2ccccc2O)C1Oc1ccc(C(=O)O)cc1 (stereo not shown) [Table III: O-(4-COOHPh); CH2 Ph(2-OH)]
2,69,CCC1(CC)C(=O)N(C(=O)NCc2ccccc2)C1n1cnc2ccccc21 (stereo not shown) [Table III: 1-benzimidazolyl; CH2 Ph]
3,1680,CCC1(CC)C(=O)N(C(=O)NCc2ccccc2)C1Oc1ccc(C(NC(C)=O)C(=O)O)cc1 (stereo not shown) [Table III: O-(4-CH(COOH)NHAcPh); CH2 Ph]
4,3350,CCC1(CC)C(=O)N(C(=O)NCc2ccc(S(C)(=O)=O)cc2)C1Oc1ccc(C(=O)O)cc1 (stereo not shown)
5,5710,CCC(NC(=O)N1C(=O)C(CC)(CC)C1OCC(=O)O)c1ccccc1 (stereo not shown) [Table III: OCH2COOH; CH(Et)Ph]
6,51800,CCC1(CC)C(=O)N(C(=O)NCc2ccc(-c3ccccc3)cc2)C1OCC(N)=O (stereo not shown) [Table III: OCH2 CONH2; CH2Ph-4-Ph]
7,4160,CCC1(CC)C(=O)N(C(=O)NCC2CCC3CCCCC3C2)C1Oc1ccc(C(=O)O)cc1 (stereo not shown) [Table III: O-(4-COOHPh); drawing 41]

# Same assay, conditions: pH 7.5, Table IV, (per mole per second); read-out: kobs/I, second order rate constant of inactivation of the enzyme
row,kinact/KI [M⁻¹ s⁻¹],Compound
1,227000,CCOC(=O)c1ccc(COC(=O)N2C(=O)C(CC)C2Oc2ccc(C(=O)O)cc2)cc1 (stereo not shown)
2,5980,CCC1C(=O)N(C(=O)N(Cc2ccccc2)Cc2ccccc2)C1Oc1ccc(C(=O)O)cc1 (stereo not shown)
3,83000,CCC1C(=O)N(C(=O)N(CC)Cc2ccccc2)C1Oc1ccc(C(=O)O)cc1 (stereo not shown)

# Same assay, conditions: pH 7.5, Table V, (per mole per second); read-out: kobs/I, second order rate constant of inactivation of the enzyme
row,kinact/KI [M⁻¹ s⁻¹],Compound
1,25000,CCC1(CC)C(=O)N(C(=O)N[C@H](Cc2ccccc2)c2ccccc2)[C@H]1Oc1ccc(C(=O)O)cc1 [Table V: 4-COOH; PhCH2; H]
2,47000,CCC1(CC)C(=O)N(C(=O)N[C@H](C)c2ccc(C)cc2)[C@H]1Oc1ccc(C(=O)O)cc1 [Table V: 4-COOH; Me; 4-Me]

# Same assay, conditions: pH 7.5, Table VI, (per mole per second); read-out: kobs/I, second order rate constant of inactivation of the enzyme
row,Compound,kinact/KI [M⁻¹ s⁻¹]
1,"CCC[C@@H](NC(=O)N1C(=O)C(CC)(CC)[C@@H]1Oc1ccc(C(=O)O)c(F)c1)c1ccc(C)cc1 [Table VI: 3-F,4-COOH; nPr; 4-Me, (4S)-3,3-Diethyl-1-[(R)-α-n-propyl-(4-methyl)benzylaminocarbonyl]-4-[(4-carboxy-3-fluoro)phenoxy]-azetidin-2-one]",464000
2,CC[C@@H](NC(=O)N1C(=O)C(CC)(CC)[C@@H]1Oc1ccc(C(=O)CCC(=O)O)cc1)c1ccccc1 [Table VI: 4-CO(CH2)2 COOH; Et; H],272000
3,"CC[C@@H](NC(=O)N1C(=O)C(CC)(CC)[C@@H]1Oc1ccc(CC(=O)O)cc1)c1ccccc1 [Table VI: 4-CH2 COOH; Et; H, (4S)-3,3-diethyl-1-[(R)-α-ethylbenzyl-aminocarbonyl]-4-[(4-carboxymethyl)phenoxy]azetidin-2-one]",126000
4,CC[C@@H](NC(=O)N1C(=O)C(CC)(CC)[C@@H]1Oc1ccc(C(=O)O)cc1)c1ccc(-c2ccccc2)cc1 [Table VI: 4-COOH; Et; 4-Ph],26400
5,CCC1(CC)C(=O)N(C(=O)N[C@H](C)c2ccccc2)[C@H]1Oc1ccc(C=CC(=O)O)cc1 [Table VI: 4-CHCHCOOH; Me; H],9100
6,CCC1(CC)C(=O)N(C(=O)N[C@H](C)c2ccc(C)cc2)[C@H]1Oc1ccc(C(=O)O)cc1 [Table VI: 4-COOH; Me; 4-Me],10700
7,CCC1(CC)C(=O)N(C(=O)N[C@@H](c2ccccc2)C(C)C)[C@H]1Oc1ccc(C(=O)O)cc1 [Table VI: 4-COOH; iPr; H],177000
8,CCC1(CC)C(=O)N(C(=O)N[C@H](C)c2ccc(-c3ccccc3Cl)cc2)[C@H]1Oc1ccc(C(=O)O)cc1 [Table VI: 4-COOH; Me; 4-(2'-ClPh)],245000

# Continued, values first:
row,kinact/KI [M⁻¹ s⁻¹],Compound
1,81000,CC[C@@H](NC(=O)N1C(=O)C(CC)(CC)[C@@H]1Oc1cccc(CC(=O)O)c1)c1ccccc1 [Table VI: 3-CH2 COOH; Et; H]
2,49200,CCC1(CC)C(=O)N(C(=O)N[C@@H](C)c2ccc(-c3ccccc3)cc2)[C@H]1Oc1ccc(C(=O)O)cc1 [Table VI: 4-COOH; Me(s); 4-Ph]
3,8370,CCC1(CC)C(=O)N(C(=O)N[C@H](C)c2ccccc2)[C@H]1Oc1ccc(CC(=O)O)cc1 [Table VI: 4-CH2 COOH; Me; H]
